Test results as given in PubChem BioAssay AID1918999 (Molecular Pharmacology Branch, DTP, NCI, 2023).
pIC50: −log10 of the molar value.

Tested on: 556581-035-R-J1-PDC complex spheroid growth
Experiment: Anticancer human tumor 556581-035-R-J1-PDC patient-derived ovarian carcinoma cell line growth inhibition [AhR]
Settings: for pIC50: curve of first compound; for viability, T/C: stronger effect = lower value
Method in brief: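 Complex tumor spheroids co-cultured with HUVEC and human MSC stroma; AhR antagonists tested in combination with standard-of-care and investigational agents. Top concentration at or near clinical Cmax (else 10 microM), half-log dilutions; growth expressed as percent test/control.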

[1] = second compound 0.1 µM, first compound 0.0316 µM
[2] = second compound 0.1 µM, first compound 0.1 µM
[3] = second compound 0.1 µM, first compound 0.316 µM
[4] = second compound 0.1 µM, first compound 1 µM
[5] = second compound 0.1 µM, first compound 3.16 µM
[6] = second compound 0.1 µM, first compound 10 µM
[7] = second compound 0.316 µM, first compound 0.0316 µM
[8] = second compound 0.316 µM, first compound 0.1 µM
[9] = second compound 0.316 µM, first compound 0.316 µM
[10] = second compound 0.316 µM, first compound 1 µM
[11] = second compound 0.316 µM, first compound 3.16 µM
[12] = second compound 0.316 µM, first compound 10 µM
[13] = second compound 1 µM, first compound 0.0316 µM
[14] = second compound 1 µM, first compound 0.1 µM
[15] = second compound 1 µM, first compound 0.316 µM
[16] = second compound 1 µM, first compound 1 µM
[17] = second compound 1 µM, first compound 3.16 µM
[18] = second compound 1 µM, first compound 10 µM
[19] = second compound 3.16 µM, first compound 0.0316 µM
[20] = second compound 3.16 µM, first compound 0.1 µM
[21] = second compound 3.16 µM, first compound 0.316 µM
[22] = second compound 3.16 µM, first compound 1 µM
[23] = second compound 3.16 µM, first compound 3.16 µM
[24] = second compound 3.16 µM, first compound 10 µM
[25] = second compound 10 µM, first compound 0.0316 µM
[26] = second compound 10 µM, first compound 0.1 µM
[27] = second compound 10 µM, first compound 0.316 µM
[28] = second compound 10 µM, first compound 1 µM
[29] = second compound 10 µM, first compound 3.16 µM
[30] = second compound 10 µM, first compound 10 µM
[31] = second compound 0.1 µM, first compound 0.00316 µM
[32] = second compound 0.1 µM, first compound 0.01 µM
[33] = second compound 0.316 µM, first compound 0.00316 µM
[34] = second compound 0.316 µM, first compound 0.01 µM
[35] = second compound 1 µM, first compound 0.00316 µM
[36] = second compound 1 µM, first compound 0.01 µM
[37] = second compound 3.16 µM, first compound 0.00316 µM
[38] = second compound 3.16 µM, first compound 0.01 µM
[39] = second compound 10 µM, first compound 0.00316 µM
[40] = second compound 10 µM, first compound 0.01 µM
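Throughout, for viability, T/C: compound exposure lasted 7 days; 100% = DMSO vehicle control growth.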

Row | SMILES | pIC50 (second compound 0.1 µM) | pIC50 (second compound 0.316 µM) | pIC50 (second compound 1 µM) | pIC50 (second compound 3.16 µM) | pIC50 (second compound 10 µM) | viability, T/C [1] [%] | viability, T/C [2] [%] | viability, T/C [3] [%] | viability, T/C [4] [%] | viability, T/C [7] [%] | viability, T/C [8] [%] | viability, T/C [9] [%] | viability, T/C [10] [%] | viability, T/C [13] [%] | viability, T/C [14] [%] | viability, T/C [15] [%] | viability, T/C [19] [%] | viability, T/C [20] [%] | viability, T/C [25] [%] | viability, T/C [26] [%] | further results
1 | CC(C)c1c(-c2ccccc2)nc2c(C#N)c[nH]n2c1=O + CC(CO)NC(=O)c1cc(-c2ccc(Cl)cc2)nn(-c2cnn(C)c2)c1=O | < 5.00 | < 5.00 | < 5.00 | < 5.00 | < 5.00 | 109 | 97.8 | 95.2 | 102 | 106 | 105 | 95.9 | 96.5 | 110 | 112 | 108 | 106 | 95.5 | 108 | 117 | viability, T/C [5]: 90.2%; viability, T/C [6]: 97.4%; viability, T/C [11]: 106%; viability, T/C [12]: 97.5%; viability, T/C [16]: 107%; viability, T/C [17]: 113%; viability, T/C [18]: 95.8%; viability, T/C [21]: 116%; viability, T/C [22]: 100%; viability, T/C [23]: 106%; viability, T/C [24]: 99.2%; viability, T/C [27]: 111%; viability, T/C [28]: 97.8%; viability, T/C [29]: 104%; viability, T/C [30]: 97.1%
2 | CC[C@@]1(O)C(=O)OCc2c1cc1n(c2=O)Cc2cc3c(CN(C)C)c(O)ccc3nc2-1 + Cc1ccccc1N=Nc1ccc(NC(=O)c2ccnn2C)c(C)c1 | < 7.00 | < 7.00 | < 7.00 | < 7.00 | < 7.00 | 70.4 | 50.6 |  |  | 69.1 | 54.9 |  |  | 65 | 60.3 |  | 62.9 | 53.1 | 64.7 | 55.1 | viability, T/C (second compound 0.1 µM, first compound 0.000316 µM): 94.8%; viability, T/C (second compound 0.1 µM, first compound 0.001 µM): 98.5%; viability, T/C [31]: 91.5%; viability, T/C [32]: 82.3%; viability, T/C (second compound 0.316 µM, first compound 0.000316 µM): 108%; viability, T/C (second compound 0.316 µM, first compound 0.001 µM): 104%; viability, T/C [33]: 92.6%; viability, T/C [34]: 73.7%; viability, T/C (second compound 1 µM, first compound 0.000316 µM): 101%; viability, T/C (second compound 1 µM, first compound 0.001 µM): 93.7%; viability, T/C [35]: 84.7%; viability, T/C [36]: 79.1%; viability, T/C (second compound 3.16 µM, first compound 0.000316 µM): 81.3%; viability, T/C (second compound 3.16 µM, first compound 0.001 µM): 83%; viability, T/C [37]: 83.4%; viability, T/C [38]: 72%; viability, T/C (second compound 10 µM, first compound 0.000316 µM): 89.2%; viability, T/C (second compound 10 µM, first compound 0.001 µM): 91.4%; viability, T/C [39]: 91.1%; viability, T/C [40]: 69%
3 | COc1cc(C2c3cc4c(cc3C(OC3OC5COC(C)OC5C(O)C3O)C3COC(=O)C23)OCO4)cc(OC)c1O (stereo not given) + Cc1ccccc1N=Nc1ccc(NC(=O)c2ccnn2C)c(C)c1 | < 5.00 | < 5.00 | < 5.00 | < 5.00 | < 5.00 | 109 | 101 | 85.4 | 71 | 110 | 106 | 85.1 | 75.7 | 95.9 | 106 | 92.1 | 91.9 | 104 | 93.2 | 98 | viability, T/C [5]: 68.8%; viability, T/C [6]: 52.5%; viability, T/C [11]: 71.5%; viability, T/C [12]: 51.4%; viability, T/C [16]: 69.7%; viability, T/C [17]: 66.5%; viability, T/C [18]: 53.9%; viability, T/C [21]: 94.2%; viability, T/C [22]: 72%; viability, T/C [23]: 62.5%; viability, T/C [24]: 58.7%; viability, T/C [27]: 89.5%; viability, T/C [28]: 75.8%; viability, T/C [29]: 69.7%; viability, T/C [30]: 56.8%
4 | COc1cccc2c1C(=O)c1c(O)c3c(c(O)c1C2=O)CC(O)(C(=O)CO)CC3OC1CC(N)C(O)C(C)O1 (stereo not given) + Cc1ccccc1N=Nc1ccc(NC(=O)c2ccnn2C)c(C)c1 | 6.37 | 6.38 | 6.28 | 6.31 | 6.31 | 83.7 | 78 | 60.2 | 20.7 | 82.7 | 77.9 | 59.9 | 19.2 | 85.7 | 93.8 | 70.9 | 83.2 | 79.9 | 79.2 | 85.7 | viability, T/C [5]: 2.13%; viability, T/C [6]: 2.2%; viability, T/C [11]: 3.1%; viability, T/C [12]: 3.13%; viability, T/C [16]: 21.4%; viability, T/C [17]: 3.42%; viability, T/C [18]: 2.49%; viability, T/C [21]: 68.3%; viability, T/C [22]: 20.1%; viability, T/C [23]: 4.16%; viability, T/C [24]: 1.64%; viability, T/C [27]: 70.2%; viability, T/C [28]: 17.2%; viability, T/C [29]: 2.04%; viability, T/C [30]: 2.28%
5 | Nc1ccn(C2OC(CO)C(O)C2(F)F)c(=O)n1 (stereo not given) + Cc1ccccc1N=Nc1ccc(NC(=O)c2ccnn2C)c(C)c1 | > 7.50 | > 7.50 | > 7.50 | > 7.50 | > 7.50 | 35.5 | 41.6 | 38.4 | 34.7 | 31.9 | 37.4 | 38.4 | 37.6 | 38.3 | 37.2 | 41.1 | 36.1 | 36.9 | 38 | 42.6 | viability, T/C [5]: 35.5%; viability, T/C [6]: 34%; viability, T/C [11]: 35.4%; viability, T/C [12]: 32.4%; viability, T/C [16]: 36.2%; viability, T/C [17]: 33.9%; viability, T/C [18]: 30%; viability, T/C [21]: 37.6%; viability, T/C [22]: 37.7%; viability, T/C [23]: 37.1%; viability, T/C [24]: 29%; viability, T/C [27]: 40.9%; viability, T/C [28]: 39.7%; viability, T/C [29]: 37.7%; viability, T/C [30]: 35.6%
6 | Nc1ncn(C2CC(O)C(CO)O2)c(=O)n1 (stereo not given) + Cc1ccccc1N=Nc1ccc(NC(=O)c2ccnn2C)c(C)c1 | < 6.00 | < 6.00 | < 6.00 | < 6.00 | < 6.00 | 90.4 | 84.7 | 85.1 | 77.4 | 85.9 | 89.6 | 78.7 | 74.1 | 95.1 | 92.3 | 89.2 | 81 | 79.6 | 71.2 | 72.4 | viability, T/C [31]: 95.9%; viability, T/C [32]: 95.5%; viability, T/C [33]: 108%; viability, T/C [34]: 98.8%; viability, T/C [35]: 98.5%; viability, T/C [36]: 97.7%; viability, T/C [16]: 78.1%; viability, T/C [37]: 86.7%; viability, T/C [38]: 81.6%; viability, T/C [21]: 73%; viability, T/C [22]: 82.8%; viability, T/C [39]: 85.4%; viability, T/C [40]: 77.9%; viability, T/C [27]: 77.6%; viability, T/C [28]: 75.3%
